Experimental data reported in patent publication US11230535B2, “CFTR regulators and methods of use thereof” (THE REGENTS OF THE UNIVERSITY OF CALIFORNIA, priority 2015, dated 2022).
Entries after “also recorded” stand apart in the source; their conditions may differ.

What was measured:
[1] = Chemical stability in ophthalmic vehicle (LC/MS); format: physicochemical; details: 100 μM, 0.3% CMC in Ringer's solution, 24 h at 40° C.
cAMP = cAMP GloSensor luminescence assay in FRT cells; format: cell-based, rat
Procedure: Intracellular cAMP activity was measured using a GloSensor luminescence assay (Promega Corp., Madison, Wis., USA). FRT null cells were stably transfected with the pGloSensor cAMP plasmid and plated onto white 96-well microplates and grown to confluence. Cells were washed three times with PBS and incubated with 5 μM CFTRact-J027 for 10 min in the absence and presence of 100 nM forskolin. cAMP was assayed according to the manufacturer's instructions.
Intracellular cAMP activity was measured using a GloSensor luminescence assay (Promega Corp., Madison, Wis., USA). FRT cells stably transfected with the pGloSensor cAMP plasmid (Promega Corp.) were cultured in white 96-well microplates (Corning Costar) overnight. Cells were then washed three times with PBS and incubated with 5 μM test compound for 10 min in the absence and presence of 100 nM forskolin.
cAMP assay. Intracellular cAMP activity was measured using a GloSensor luminescence assay (Promega Corp., Madison, Wis., USA). FRT null cells were stably transfected with the pGloSensor cAMP plasmid and plated onto white 96-well microplates and grown to confluence. […]
cAMP and cytotoxicity assays. Intracellular cAMP activity was measured using a GloSensor luminescence assay (Promega Corp., Madison, Wis., USA). […]

mice = assay: In vivo whole-gut transit time; parameters: species or system mouse
Procedure: Whole-gut transit time was determined using an orally administered marker (200 μL, 5% Evans Blue, 5% gum Arabic) and measuring the time of its appearance in stool. Mice were administered loperamide and CFTRact-J027 (10 mg/kg) or vehicle intraperitoneally at zero time. For ex vivo contractility measurements, mice were euthanized by avertin overdose (200 mg/kg, 2,2,2-tribromethanol, Sigma-Aldrich) and ileum and colon segments of ˜2 cm length were isolated and washed with Krebs-Henseleit buffer. The ends of the intestinal segments were tied, connected to a force transducer (Biopac Systems, Goleta, Calif., USA) and tissues were transferred to an organ chamber (Biopac Systems) containing Krebs-Henseleit buffer at 37° C. aerated with 95% O2, 5% CO2. Ileum and colon were stabilized for 60 min with resting tensions of 0.5 and 0.2 g respectively, and solutions were changed every 15 min. Effects of CFTRact-J027 on baseline and loperamide-suppressed isometric intestinal contractions were recorded.
In vivo intestinal transit and ex vivo intestinal contractility. Whole-gut transit time was determined using an orally administered marker (200 μL, 5% Evans Blue, 5% gum Arabic) and measuring the time of its appearance in stool. […] Effects of CFTRact-J027 on baseline and loperamide-suppressed isometric intestinal contractions were recorded.

closed mid-jejunal loops = assay: In vivo intestinal fluid secretion in closed mid-jejunal loops; parameters: species or system mouse; details: 90 min
Procedure: Mice (wildtype or CF) were given access to 5% dextrose water but not solid food for 24 h before experiments. Mice were anesthetized with isoflurane and body temperature was maintained during surgery at 36-38° C. using a heating pad. A small abdominal incision was made to expose the small intestine, and closed mid-jejunal loops (length 2-3 cm) were isolated by sutures. Loops were injected with 100 μL vehicle alone or 100 μg CFTRact-J027 in vehicle. The abdominal incision was closed with sutures, and mice were allowed to recover from anesthesia. Intestinal loops were removed at 90 min and loop length and weight were measured to quantify fluid secretion. Intestinal absorption was measured in CF mice (to prevent secretion) as described above, except that the loops were removed at 0 or 30 min. Absorption was calculated as 1−(loop weight at 0 min−loop weight at 30 min)/loop weight at 0 min.
In vivo intestinal secretion and absorption. Mice (wildtype or CF) were given access to 5% dextrose water but not solid food for 24 h before experiments. […] Intestinal loops were removed at 90 min and loop length and weight were measured to quantify fluid secretion. Intestinal absorption was measured in CF mice (to prevent secretion) as described above, except that the loops were removed at 0 or 30 min. Absorption was calculated as 1−(loop weight at 0 min−loop weight at 30 min)/loop weight at 0 min.

loperamide-treated mice = assay: Loperamide-induced mouse model of constipation (3-h stool weight, pellet number, water content)
[2] = Tear film pharmacokinetics (LC/MS of tear washes)

## CNc1nc(Nc2ccccc2)nc(OCC(F)(F)C(F)F)n1 [compound 12, N-methyl-N′-phenyl-6-(2,2,3,3-tetrafluoropropoxy)-1,3,5-triazine-2,4-diamine]
[1]
  chemical stability in ophthalmic vehicle: stable at 100 μM in an ophthalmic vehicle; also recorded: remained chemically stable

## Nc1ccc([N+](=O)[O-])cc1-c1nc2ccccc2n(Cc2ccccc2)c1=O [CFTRact-J027, 3-(2-amino-5-nitrophenyl)-1-benzylquinoxalin-2(1H)-one]
cAMP; 5 μM + 100 nM forskolin
  cellular cAMP, added together with forskolin: does not further increase cAMP
cAMP; 5 μM, 10 min
  cellular cAMP, compound alone: without causing elevation of cytoplasmic cAMP; also recorded: does not elevate cellular cAMP
mice; 10 mg/kg ip, loperamide-treated wild-type mice
  whole-gut transit time: normalized
mice; CF mice
  whole-gut transit time in cystic fibrosis mice: no effect
Closed mid-jejunal loops; 100 μg per loop, wild-type mice
  increase in loop weight/length ratio: 140%
Closed mid-jejunal loops; CF mice
  loop fluid secretion in cystic fibrosis mice: without effect
loperamide-treated mice; 10 mg/kg ip, loperamide-treated mice
  stool weight, pellet number, water content: normalized each of the stool parameters
loperamide-treated mice; 10 mg/kg oral daily for 7 days, loperamide 1 h after final dose
  efficacy after chronic administration: remained effective in normalizing stool output and water content
loperamide-treated mice; CF mice lacking functional CFTR
  effect on stool parameters in cystic fibrosis mice: without effect
loperamide-treated mice; ip, non-loperamide-treated mice
  stool output or water content in control mice: did not affect stool output or water content
loperamide-treated mice; oral 10 mg/kg, control mice
  stool output, oral, control mice: no effect
loperamide-treated mice; oral (10 mg/kg) 1 h before loperamide, 10 mg/kg
  stool output and water content, oral administration: normalized stool output and water content; also recorded: effective in normalizing stool output and water content
loperamide-treated mice; oral, loperamide model
  ED50, oral administration: 0.5 mg/kg

## CCN(CC)c1nc(Nc2ccccc2)nc(OC(C(F)(F)F)C(F)(F)F)n1 [CFTRact-K089, N,N-Diethyl-6-[(1,1,1,3,3,3-hexafluoropropan-2-yl)oxy]-N′-phenyl-1,3,5-triazine-2,4-diamine]
[2]; 0.1 nmol (2 μL, 50 μM) instilled
  amount recovered from tear fluid at six hours: 0.011 ± 0.004 pmol
[2]; 0.1 nmol instilled
  duration of predicted therapeutic levels in tear fluid: at least six
[2]; topical
  tear film bioavailability, in words: sustained tear film bioavailability
